From PubChem BioAssay AID743471 (Broad Institute, 2014)

System: HepG2 viability, ATP luminescence (CellTiter-Glo), 72 h
Test: viability loss in HepG2 hepatoma cells – cell-based, luminescence, dry powder, set 12, cytotoxicity control, dose response (AID 743471)

Row | SMILES | AC35 [µM]
1 | CC(C)(O)CCc1ccc(O)c2c(=O)c3c(O)c4c(cc3oc12)O[C@H]1OC=C[C@@]41O | 0.065
2 | N#Cc1ccc(-c2ccc3c(c2)[C@H]2[C@H](CCN2S(=O)(=O)c2cccc(F)c2)[C@@H](CO)N3)cc1 | 24.5
